From patent publication US20240166693A1, “METHODS AND COMPOUNDS FOR MODULATING MYOTONIC DYSTROPY 1” (Design Therapeutics, Inc., priority 2020, published 2024)
pEC50: −log10 of the molar value.

What follows are compounds tested on Myotonic Dystrophy 1 affected patient fibroblasts (Coriell GM04602; 1600 CTG repeats) (assay: DM1 foci reduction assay (CAG10-Cy3 FISH, average foci per nucleus)). Settings: Homo sapiens, Fibroblast, 48 h, read-out: Foci Reduction in Fibroblast EC50, 48 h (nM).
Assay type: cell-based
In short: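 Read-out is mean nuclear foci per well from CAG10-Cy3 FISH (5 nM probe, overnight 37 °C) with DAPI nuclei, 4 fields per well at 20×. Compounds ran 48 h in 8-point, 3-fold series topping at 3 μM on 1600-CTG GM04602 fibroblasts, alongside GM07492 wild-type cells.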

SMILES	EC50 [nM]
CC(C)C[C@H](NC(=O)[C@H](C)NC(=O)[C@H](Cc1ccccc1)NC(=O)c1ccc(C(C)(C)C)cc1)C(=O)N[C@@H](CCCCN(C)C1CC2CCC1C2)C(=O)N[C@@H](CO)C(=O)NCCOCCOCCOCCOCCOCCNC(=O)c1cc(NC(=O)c2cc(NC(=O)c3nc(NC(=O)c4cc(NC(=O)[C@@H](N)CCNC(=O)c5nc(NC(=O)c6cc(NC(=O)c7cc(NC(=O)c8nccn8C)cn7C)cn6C)cn5C)cn4C)cn3C)cn2C)cn1C (stereo partly shown) [Compound 58]	> 500
CCN(CC)CCCC[C@H](NC(=O)[C@H](CC(C)C)NC(=O)[C@H](C)NC(=O)[C@H](Cc1ccccc1)NC(=O)c1ccc(C(C)(C)C)cc1)C(=O)N[C@@H](CO)C(=O)N(C)CCOCCOCCN(C)C(=O)CCNC(=O)c1nc(NC(=O)c2cc(NC(=O)CCNC(=O)c3nc(NC(=O)CCCNC(=O)c4cc(NC(=O)c5nc(NC(=O)CCNC(=O)c6cc(NC(=O)c7nccn7C)cn6C)cn5C)cn4C)cn3C)cn2C)cn1C [Compound 76]	< 100
CC(C)C[C@H](NC(=O)[C@H](C)NC(=O)[C@H](Cc1ccccc1)NC(=O)c1ccc(C(C)(C)C)cc1)C(=O)N[C@@H](CCCCN(C)C1CC2CCC1C2)C(=O)N[C@@H](CO)C(=O)NCCOCCOCCNC(=O)c1cc(NC(=O)c2cc(NC(=O)c3nc(NC(=O)c4cc(NC(=O)[C@@H](N)CCNC(=O)c5nc(NC(=O)c6cc(NC(=O)c7cc(NC(=O)c8nccn8C)cn7C)cn6C)cn5C)cn4C)cn3C)cn2C)cn1C (stereo partly shown) [Compound 118]	> 500
CCN(CC)CCCC[C@H](NC(=O)[C@H](CC(C)C)NC(=O)[C@H](C)NC(=O)[C@H](Cc1ccccc1)NC(=O)c1ccc(C)cc1)C(=O)N[C@@H](CO)C(=O)NCCOCCOCCOCCOCCOCCNC(=O)CCNC(=O)c1nc(NC(=O)c2cc(NC(=O)CCNC(=O)c3nc(NC(=O)CCCNC(=O)c4cc(NC(=O)c5nc(NC(=O)CCNC(=O)c6cc(NC(=O)c7nccn7C)cn6C)cn5C)cn4C)cn3C)cn2C)cn1C [Compound 85]	< 100
CCN(CC)CCCC[C@H](NC(=O)COCCOCCNC(=O)c1ccc(C(C)(C)C)cc1)C(=O)N[C@@H](CO)C(=O)NCCOCCOCCNC(=O)CCNC(=O)c1nc(NC(=O)c2cc(NC(=O)CCNC(=O)c3nc(NC(=O)CCCNC(=O)c4cc(NC(=O)c5nc(NC(=O)CCNC(=O)c6cc(NC(=O)c7nccn7C)cn6C)cn5C)cn4C)cn3C)cn2C)cn1C [Compound 81]	< 100
CCN(CC)CCCC[C@H](NC(=O)[C@H](CC(C)C)NC(=O)[C@H](C)NC(=O)[C@H](Cc1ccccc1)NC(=O)c1ccc(C(C)(C)C)cc1)C(=O)N[C@@H](CO)C(=O)NCCOCCOCCOCCOCCOCCNC(=O)CCNC(=O)c1nc(NC(=O)c2cc(NC(=O)CCNC(=O)c3nc(NC(=O)[C@H](N)CCNC(=O)c4cc(NC(=O)c5nc(NC(=O)CCNC(=O)c6cc(NC(=O)c7nccn7C)cn6C)cn5C)cn4C)cn3C)cn2C)cn1C [Compound 101]	100 to 500
CCN(CC)CCCC[C@H](NC(=O)[C@H](CC(C)C)NC(=O)[C@H](C)NC(=O)[C@H](Cc1ccccc1)NC(=O)c1ccc(C(C)(C)C)cc1)C(=O)N[C@@H](CO)C(=O)NCCOCCOCCOCCOCCOCC(=O)N[C@H](CCNC(=O)c1cc(NC(=O)c2nc(NC(=O)CCNC(=O)c3cc(NC(=O)c4nccn4C)cn3C)cn2C)cn1C)C(=O)Nc1cn(C)c(C(=O)Nc2cc(C(=O)NCCC(=O)Nc3cn(C)c(C(=O)Nc4cc(C(=O)NCCO)n(C)c4)n3)n(C)c2)n1 [Compound 134]	> 500
CC(C)C[C@H](NC(=O)[C@H](C)NC(=O)[C@H](Cc1ccccc1)NC(=O)c1ccc(C(C)(C)C)cc1)C(=O)N[C@@H](CCCCN(C)C1CC2CCC1C2)C(=O)N[C@@H](CO)C(=O)NCCOCCOCCOCCOCCOCCOCCOCCOCCOCCOCCNC(=O)c1cc(NC(=O)c2cc(NC(=O)c3nc(NC(=O)c4cc(NC(=O)[C@@H](N)CCNC(=O)c5nc(NC(=O)c6cc(NC(=O)c7cc(NC(=O)c8nccn8C)cn7C)cn6C)cn5C)cn4C)cn3C)cn2C)cn1C (stereo partly shown) [Compound 119]	> 500
CCN(CC)CCCC[C@H](NC(=O)[C@H](CC(C)C)NC(=O)[C@H](C)NC(=O)[C@H](Cc1ccccc1)NC(=O)c1ccc(C(C)(C)C)cc1)C(=O)N[C@@H](CO)C(=O)NCCOCCOCCOCCOCCN1CCN(C(=O)CCNC(=O)c2nc(NC(=O)c3cc(NC(=O)CCNC(=O)c4nc(NC(=O)CCCNC(=O)c5cc(NC(=O)c6nc(NC(=O)CCNC(=O)c7cc(NC(=O)c8nccn8C)cn7C)cn6C)cn5C)cn4C)cn3C)cn2C)CC1 [Compound 187]	100 to 500
CCN(CC)CCCC[C@H](NC(=O)COCCOCCOCCNC(=O)c1ccc(C(C)(C)C)cc1)C(=O)N[C@@H](CO)C(=O)NCCOCCOCCOCCOCCOCCNC(=O)CCNC(=O)c1nc(NC(=O)c2cc(NC(=O)CCNC(=O)c3nc(NC(=O)CCCNC(=O)c4cc(NC(=O)c5nc(NC(=O)CCNC(=O)c6cc(NC(=O)c7nccn7C)cn6C)cn5C)cn4C)cn3C)cn2C)cn1C [Compound 140]	100 to 500
CCN(CC)CCCC[C@H](NC(=O)[C@H](CC(C)C)NC(=O)[C@H](C)NC(=O)[C@H](Cc1ccccc1)NC(=O)c1ccc(C(C)(C)C)cc1)C(=O)N[C@@H](CO)C(=O)NCCOCCOCCOCCOCCOCCNC(=O)CCNC(=O)c1nc(NC(=O)c2cc(NC(=O)CCNC(=O)c3nc(NC(=O)CCCNC(=O)c4cc(NC(=O)c5nc(NC(=O)CCNC(=O)c6cc(NC(=O)c7nccn7C)cn6C)cn5C)cn4C)cn3C)cn2C)cn1C [Compound 25]	100 to 500
CCN(CC)CCCC[C@H](NC(=O)[C@H](CC(C)C)NC(=O)[C@H](C)NC(=O)[C@H](Cc1ccccc1)NC(=O)c1ccc(C(C)(C)C)cc1)C(=O)N[C@@H](CO)C(=O)NCCOCCOCCOCCOCCOCCNC(=O)c1cc(NC(=O)c2cc(NC(=O)c3nc(NC(=O)c4cc(NC(=O)[C@@H](N)CCNC(=O)c5nc(NC(=O)c6cc(NC(=O)c7cc(NC(=O)c8nccn8C)cn7C)cn6C)cn5C)cn4C)cn3C)cn2C)cn1C [Compound 55]	> 500
CCN(CC)CCCC[C@H](NC(=O)CCCCCCCNC(=O)c1ccc(C(C)(C)C)cc1)C(=O)N[C@@H](CO)C(=O)NCCOCCOCCOCCOCCOCCNC(=O)CCNC(=O)c1nc(NC(=O)c2cc(NC(=O)CCNC(=O)c3nc(NC(=O)CCCNC(=O)c4cc(NC(=O)c5nc(NC(=O)CCNC(=O)c6cc(NC(=O)c7nccn7C)cn6C)cn5C)cn4C)cn3C)cn2C)cn1C [Compound 139]	< 100
CCN(CC)CCCC[C@H](NC(=O)[C@H](CC(C)C)NC(=O)[C@H](C)NC(=O)[C@H](Cc1ccccc1)NC(=O)c1ccccc1C)C(=O)N[C@@H](CO)C(=O)NCCOCCOCCOCCOCCOCCNC(=O)CCNC(=O)c1nc(NC(=O)c2cc(NC(=O)CCNC(=O)c3nc(NC(=O)CCCNC(=O)c4cc(NC(=O)c5nc(NC(=O)CCNC(=O)c6cc(NC(=O)c7nccn7C)cn6C)cn5C)cn4C)cn3C)cn2C)cn1C [Compound 86]	< 100
CCN(CC)CCCC[C@H](NC(=O)[C@H](CC(C)C)NC(=O)[C@H](C)NC(=O)[C@H](Cc1ccccc1)NC(=O)c1ccc(C(C)(C)C)cc1)C(=O)N[C@@H](CO)C(=O)NCCOCCNCC#CC#Cc1ccc(NC(=O)CCNC(=O)c2nc(NC(=O)c3cc(NC(=O)CCNC(=O)c4nc(NC(=O)CCCNC(=O)c5cc(NC(=O)c6nc(NC(=O)CCNC(=O)c7cc(NC(=O)c8nccn8C)cn7C)cn6C)cn5C)cn4C)cn3C)cn2C)cc1 [Compound 98]	> 500
CCN(CC)CCCC[C@H](NC(=O)[C@H](CC(C)C)NC(=O)[C@H](C)NC(=O)[C@H](Cc1ccccc1)NC(=O)c1ccc(C(C)(C)C)cc1)C(=O)N[C@@H](CO)C(=O)NCCOCCOCCOCCOCCOCCNC(=O)c1nc(NC(=O)c2cc(NC(=O)c3cc(NC(=O)c4nc(NC(=O)CCCNC(=O)c5cc(NC(=O)c6nc(NC(=O)CCNC(=O)c7cc(NC(=O)c8nccn8C)cn7C)cn6C)cn5C)cn4C)cn3C)cn2C)cn1C [Compound 105]	> 500

Same assay, conditions: Homo sapiens, Fibroblast; DM1 fibroblasts, 48 h treatment, 8-point dose response, 3 μM top dose; read-out: Foci Reduction in Fibroblast EC50, 48 h

SMILES	pEC50
CC(=O)c1cc(-c2ccccc2S(C)(=O)=O)c2cc(OCCOCCOCCOCCOCCOCCNC(=O)CCNC(=O)c3nc(NC(=O)c4cc(NC(=O)CCNC(=O)c5nc(NC(=O)CCCNC(=O)c6cc(NC(=O)c7nc(NC(=O)CCNC(=O)c8cc(NC(=O)c9nccn9C)cn8C)cn7C)cn6C)cn5C)cn4C)cn3C)ccn12 [Compound 169]	< 6.30
CN(C)[C@H]1CN(C2CCc3cccc(F)c32)C[C@@H]1c1ccc(N2CCN(S(=O)(=O)CCOCCOCCOCCOCCOCCNC(=O)CCNC(=O)c3nc(NC(=O)c4cc(NC(=O)CCNC(=O)c5nc(NC(=O)CCCNC(=O)c6cc(NC(=O)c7nc(NC(=O)CCNC(=O)c8cc(NC(=O)c9nccn9C)cn8C)cn7C)cn6C)cn5C)cn4C)cn3C)CC2)cc1 (stereo partly shown) [Compound 147]	< 6.30
CCN(c1cc(-c2ccc(CN3CCN(CCOCCOCCNC(=O)CCNC(=O)c4nc(NC(=O)c5cc(NC(=O)CCNC(=O)c6nc(NC(=O)CCCNC(=O)c7cc(NC(=O)c8nc(NC(=O)CCNC(=O)c9cc(NC(=O)c%10nccn%10C)cn9C)cn8C)cn7C)cn6C)cn5C)cn4C)CC3)cc2)cc(C(=O)NCc2c(C)cc(C)[nH]c2=O)c1C)C1CCOCC1 [Compound 165]	< 6.30
CC(C)c1cnn2c(NCc3ccc(OCCOCCOCCOCCOCCOCCOCCOCCOCCOCCOCCNC(=O)CCNC(=O)c4nc(NC(=O)c5cc(NC(=O)CCNC(=O)c6nc(NC(=O)CCCNC(=O)c7cc(NC(=O)c8nc(NC(=O)CCNC(=O)c9cc(NC(=O)c%10nccn%10C)cn9C)cn8C)cn7C)cn6C)cn5C)cn4C)cc3-n3cccn3)nc(OC3CCCNC3)nc12 (stereo not shown) [Compound 53]	< 6.30
COc1c(OCCOCCOCCOCCOCCOCCNC(=O)CCNC(=O)c2nc(NC(=O)c3cc(NC(=O)CCNC(=O)c4nc(NC(=O)CCCNC(=O)c5cc(NC(=O)c6nc(NC(=O)CCNC(=O)c7cc(NC(=O)c8nccn8C)cn7C)cn6C)cn5C)cn4C)cn3C)cn2C)cccc1C(=O)N1CCN(C(=O)COc2cc(C)cc(C)c2)CC1 [Compound 91]	< 6.30
CCN(CCN(C)CCOCCOCCOCCOCCOCCNC(=O)CCNC(=O)c1nc(NC(=O)c2cc(NC(=O)CCNC(=O)c3nc(NC(=O)CCCNC(=O)c4cc(NC(=O)c5nc(NC(=O)CCNC(=O)c6cc(NC(=O)c7nccn7C)cn6C)cn5C)cn4C)cn3C)cn2C)cn1C)C(=O)CNCc1cc(C(N)=O)ccn1 [Compound 163]	< 6.30
